Experiment [1] deals with T1, Prostaglandin E synthase (Homo sapiens, UniProt O14684).
T1 sequence (O14684 whole entry): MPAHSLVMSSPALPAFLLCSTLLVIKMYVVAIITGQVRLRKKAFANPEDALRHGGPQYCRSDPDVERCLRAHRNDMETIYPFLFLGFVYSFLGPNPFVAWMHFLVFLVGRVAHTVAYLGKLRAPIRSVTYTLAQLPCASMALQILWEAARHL
The experiment is described as follows: Inhibition of mPGES1 in human A549 cell microsomal membrane using pGH2 as substrate pretreated for 15 mins followed by substrate addition and measured after 1 min by RP-HPLC method.

Experiment [2] has as its target T2, Prostaglandin E synthase (Homo sapiens) (UniProt O14684).
T2 sequence (whole entry): T1 sequence (O14684 whole entry)
The experiment is described as follows: Inhibition of mPGES1 in human HeLa cells assessed as reduction in PGE2 production at 50 uM by enzyme immunoassay relative to control. It is filed as cell-based.

In experiment [3] the target is Prostaglandin G/H synthase 2 (Homo sapiens) (UniProt P35354). The experiment is described as follows: Inhibition of COX2 in human A375 cells assessed as reduction in PGE2 production up to 20 uM by immunoblot analysis relative to control. (A western blot detects proteins with antibodies after separation by electrophoresis.)
Chain of Prostaglandin G/H synthase 2 (Homo sapiens) (P35354 whole entry, looked up): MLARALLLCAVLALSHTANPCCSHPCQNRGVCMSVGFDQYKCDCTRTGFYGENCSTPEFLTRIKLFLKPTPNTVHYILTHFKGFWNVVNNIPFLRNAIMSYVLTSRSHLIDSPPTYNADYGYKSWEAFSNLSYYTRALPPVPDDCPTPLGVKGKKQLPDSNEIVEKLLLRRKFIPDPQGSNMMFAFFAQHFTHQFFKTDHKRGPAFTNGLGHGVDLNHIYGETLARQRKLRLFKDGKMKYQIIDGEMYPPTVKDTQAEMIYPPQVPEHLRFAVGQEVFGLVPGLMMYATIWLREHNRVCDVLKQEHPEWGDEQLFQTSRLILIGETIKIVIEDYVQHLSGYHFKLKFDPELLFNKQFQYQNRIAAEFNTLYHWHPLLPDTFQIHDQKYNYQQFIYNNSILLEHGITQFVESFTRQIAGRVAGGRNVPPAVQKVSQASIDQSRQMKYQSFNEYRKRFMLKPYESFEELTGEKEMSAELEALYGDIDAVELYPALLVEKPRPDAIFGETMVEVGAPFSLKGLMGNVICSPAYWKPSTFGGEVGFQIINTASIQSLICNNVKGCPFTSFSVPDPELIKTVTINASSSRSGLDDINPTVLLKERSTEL
The target is the same in experiment [4]. Nature of the experiment: Inhibition of COX2 in human Hs294 cells assessed as reduction in PGE2 production up to 20 uM by immunoblot analysis relative to control.
Experiment [5] deals with J774. The experiment is described as follows: Inhibition of LPS-stimulated mPGES1 expression in mouse J774 cells. It is filed as functional, cell-based.
Experiment [6] deals with Rattus norvegicus. The experiment is described as follows: Antiinflammatory activity against carrageenan-induced pleurisy in rat assessed as reduction in exudate formation at 3.6 mg/kg, ip relative to control. Set-up: scale not given: the % may be the effect or the level left. The format is functional.
Experiment [7] relates to Rattus norvegicus. Nature of the experiment: Antiinflammatory activity against carrageenan-induced pleurisy in rat assessed as reduction in cell infiltration at 3.6 mg/kg, ip relative to control. The format is functional. Set-up: scale not given: the % may be the effect or the level left.
Experiment [8] deals with Rattus norvegicus. The experiment is described as follows: Antiinflammatory activity against carrageenan-induced pleurisy in rat assessed as reduction in PGE2 level at 3.6 mg/kg, ip relative to control. It is filed as functional. Set-up: scale not given: the % may be the effect or the level left.
Experiment [9] deals with J774. Nature of the experiment: Inhibition of LPS-induced mPGES1 mRNA expression in mouse J774 cells at 100 uM measured after 6 to 24 hrs by qRT-PCR analysis. The format is functional. A general note: Quantitative PCR measures a nucleic acid by following its amplification.
For experiment [10], the target named is T1, Prostaglandin E synthase. The experiment is described as follows: Inhibition of mPGES1 in human A549 cell microsomes.

The structures appear in SMILES notation. Some results are limits rather than exact numbers.

Take `COC(=O)c1c(C)cc(OC(=O)c2c(C)cc(O)c(C=O)c2O)c(C)c1O` [ATRANORIN]: at Prostaglandin E synthase [1], the IC50 came to 1150 nM. `CC(=O)O[C@@H]1CC[C@@]2(C)[C@@H](CC[C@]3(C)[C@@H]2CC=C2[C@@H]4[C@@H](C)[C@H](C)CC[C@]4(C)CC[C@]23C)[C@@]1(C)C(=O)O`: the IC50 on Prostaglandin E synthase [1] is ≥ 30000 nM. The same measure, in the same setting: the result for `CCCCCc1cc(OC(=O)c2c(O)cc(OC)cc2CCCCC)cc(O)c1C(=O)O` reads 430 nM; that for `C[C@H]1[C@H](C)CC[C@]2(C)CC[C@]3(C)C(=CC(=O)[C@@H]4[C@@]5(C)CC[C@@H](O)[C@](C)(C(=O)O)[C@@H]5CC[C@]43C)[C@H]12` [11-KETO BOSWELLIC ACID], 10000 nM. For the compound `COc1ccc2cc3[n+](cc2c1OC)CCc1cc2c(cc1-3)OCO2`, the inhibition in experiment [2] was 71.9%; in experiment [3], 15 to 75%; in experiment [4] it was 16 to 63%. Compound `COc1cc(C[C@@H]2COC(=O)[C@]2(O)Cc2ccc(O)c(OC)c2)ccc1O` came in with an IC50 in the experiment on J774 [5] of 14000 nM. As to `CCc1oc(=O)c(Cc2c(O)c(CC=C(C)C)c(O)c(C(C)=O)c2O)c(O)c1C` [ARZANOL], the Activity in the experiment on Rattus norvegicus [6] turned out to be 59%; in the experiment on Rattus norvegicus [7], 48%; in the experiment with Rattus norvegicus [8] it was 47%. As for `O=c1c(O)c(-c2ccc(O)cc2)oc2cc(O)cc(O)c12` [KAEMPFEROL], the inhibition at 100 µM with J774 [9] is > 50%. Turning to `O=C(O[C@@H]1Cc2c(O)cc(O)cc2O[C@@H]1c1cc(O)c(O)c(O)c1)c1cc(O)c(O)c(O)c1` [EPIGALOCATECHIN GALLATE], the IC50 at Prostaglandin E synthase [1] worked out at 1800 nM.

Regarding `COc1cc(-c2oc3cc(O)cc(O)c3c(=O)c2O)ccc1O` [ISORHAMNETIN], in the experiment on J774 [9], the inhibition at 100 µM is > 50%. Regarding `COc1cc(/C=C/C(=O)CC(=O)/C=C/c2ccc(O)c(OC)c2)ccc1O` [CURCUMIN], the IC50 on Prostaglandin E synthase [1] came out at 300 nM. Regarding `CCCCCCCCCCCC1=C(O)C(=O)C=C(O)C1=O` [EMBELIN], at Prostaglandin E synthase [10], the IC50 was found to be 200 nM. Regarding `C=C(C)[C@H](CC=C(C)C)C[C@]12C[C@H](CC=C(C)C)C(C)(C)[C@](CC=C(C)C)(C(=O)C(C(=O)c3ccc(O)c(O)c3)=C1O)C2=O`, on Prostaglandin E synthase [1], the IC50 is 300 nM.

As for `CCCCCC(=O)Cc1cc(O)cc(O)c1C(=O)Oc1cc(O)c(C(=O)O)c(CCCCC)c1`, the IC50 at Prostaglandin E synthase [1] stood at 400 nM.

A word on the IC50: it is the concentration that gives 50% inhibition. In general, inhibition refers to the relative decrease from the control value, in per cent.

The values are drawn from ChEMBL document CHEMBL4152187, “Plant-derived mPGES-1 inhibitors or suppressors: A new emerging trend in the search for small molecules to combat inflammation” (Eur J Med Chem, 2018).
